In ChEMBL document CHEMBL3997802, “Design, Synthesis, and Evaluation of Isaindigotone Derivatives To Downregulate c-myc Transcription via Disrupting the Interaction of NM23-H2 with G-Quadruplex” (J Med Chem, 2017):
Activity calls are given as the source filed them. The rule behind the calls is not given here.

Assays:
[1] = (§1) Inhibition of 5'-biotin-labeled c-Myc Pu18 G-quadruplex DNA (unknown origin) interaction with His-tagged NM23-H2 at 20 uM preincubated with NM23-H2 for 1 hr followed by addition of DNA measured after overnight incubation by ELISA
[2] = as §1, with “His-tagged NM23-H2 assessed as ratio of Kd for NM23-H2-DNA complex in presence of compound to Kd for […]-DNA complex in absence of compound at 20” for “His-tagged NM23-H2 at 20”
[3] = Inhibition of thiazole orange binding to c-Myc Pu27 G-quadruplex DNA (unknown origin) at 10 uM after 30 secs by fluorescence spectrophotometric method
[4] = Inhibition of thiazole orange binding to c-Myc Pu18 G-quadruplex DNA (unknown origin) at 10 uM after 30 secs by fluorescence spectrophotometric method
[5] = molecular target: T1, Nucleoside diphosphate kinase B (Homo sapiens, UniProt P22392); assay: Binding affinity to NT647-labeled His-tagged NM23-H2 (unknown origin) expressed in Escherichia coli BL21(DE3) up to 500 uM after 30 mins by microscale thermophoresis method
T1 sequence (P22392 whole entry): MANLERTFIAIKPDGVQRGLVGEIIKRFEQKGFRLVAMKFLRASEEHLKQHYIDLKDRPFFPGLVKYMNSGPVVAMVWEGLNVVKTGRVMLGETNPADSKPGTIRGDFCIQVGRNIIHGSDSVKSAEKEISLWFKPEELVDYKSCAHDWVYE

[6] = organism: Homo sapiens; assay: Inhibition of NM23-H2 binding to c-Myc promoter DNA in human SiHa cell nuclear extract at 4.85 to 9.7 uM after 4 days by ChIP analysis
[7] = molecular target: T1, Nucleoside diphosphate kinase B; assay: Binding affinity to NT647-labeled His-tagged NM23-H2 (unknown origin) expressed in Escherichia coli BL21(DE3) after 30 mins by microscale thermophoresis method
[8] = Stabilization of 5'-FAM/3'-TAMRA labeled c-Myc Pu18 G-quadruplex DNA (unknown origin) assessed as change in melting temperature at 1 uM after overnight incubation by FRET assay
[9] = organism: Homo sapiens; assay: Inhibition of NM23-H2 binding to c-Myc promoter DNA in human SiHa cell nuclear extract at 1.3 to 2.6 uM after 4 days by ChIP analysis

**Q.** With `CN1CCN(c2cc3nc4n(c(=O)c3cc2F)CC/C4=C\c2ccc(NC(=O)CCN3CCCCC3)cc2)CC1` as the compound, how does the inhibition [1] read?
**A.** Active

**Q.** Which Ratio [2] does the source give for `CN1CCN(c2cc3nc4n(c(=O)c3cc2F)CC/C4=C\c2ccc(C(=O)NCCN3CCCCC3)cc2)CC1` here?
**A.** 1.4 to 4.3

**Q.** For `CN1CCN(c2cc3nc4n(c(=O)c3cc2F)CC/C4=C\c2ccc(C(=O)NCCCN3CCCCC3)cc2)CC1`, which inhibition [1] is on record?
**A.** Active

**Q.** For `CCN(CC)CCC(=O)Nc1ccc(/C=C2\CCn3c2nc2cc(N4CCN(C)CC4)c(F)cc2c3=O)cc1`, which Ratio [2] is on record?
**A.** 1.4

**Q.** What does the source list for `CCN(CC)CCCNC(=O)c1ccc(/C=C2\CCn3c2nc2cc(NCCCN4CCCC4)c(F)cc2c3=O)cc1`?
**A.** inhibition [3]: Active; inhibition [1]: Active; inhibition [4]: Active

**Q.** For `CN1CCN(c2cc3nc4n(c(=O)c3cc2F)CCC/C4=C\c2ccc(NC(=O)CCN3CCN(CCO)CC3)cc2)CC1`, which Activity [5] is on record?
**A.** Active

**Q.** Which results are given for `O=C(NCCN1CCCC1)c1ccc(/C=C2\CCn3c2nc2cc(NCCN4CCCC4)c(F)cc2c3=O)cc1`?
**A.** inhibition [3]: Active; inhibition [1]: Active; inhibition [4]: Active

**Q.** Which Activity [5] does the source give for `CN1CCN(c2cc3nc4n(c(=O)c3cc2F)CC/C4=C\c2ccc(NC(=O)CN3CCCC3)cc2)CC1` here?
**A.** Active

**Q.** Which inhibition [1] does the source give for `CCN(CC)CCC(=O)Nc1ccc(/C=C2\CCCn3c2nc2cc(N4CCN(C)CC4)c(F)cc2c3=O)cc1` here?
**A.** Active

**Q.** With `CN1CCN(c2cc3nc4n(c(=O)c3cc2F)CC/C4=C\c2ccc(NC(=O)CCN3CCN(CCO)CC3)cc2)CC1` as the compound, how does the inhibition [6] read?
**A.** inactive

**Q.** What about the Kd [7] of the same compound?
**A.** 1.8 µM

**Q.** What about the inhibition [1] of the same compound?
**A.** Active

**Q.** For `CN1CCN(c2cc3nc4n(c(=O)c3cc2F)CC/C4=C\c2ccc(C(=O)NCCN3CCCC3)cc2)CC1`, which inhibition [1] is on record?
**A.** Active

**Q.** Which inhibition [1] does the source give for `CN1CCN(c2cc3nc4n(c(=O)c3cc2F)CC/C4=C\c2ccc(C(=O)NCCCN3CCCC3)cc2)CC1` here?
**A.** Active

**Q.** For `CCN(CC)CCCNC(=O)c1ccc(/C=C2\CCn3c2nc2cc(NCCN4CCCC4)c(F)cc2c3=O)cc1`, which inhibition [3] is on record?
**A.** Active

**Q.** And the inhibition [1]?
**A.** Active

**Q.** And the inhibition [4]?
**A.** Active

**Q.** Which results are given for `O=C(CCN1CCCC1)Nc1ccc(/C=C2\CCCn3c2nc2cc(NC(=O)CCN4CCCC4)ccc2c3=O)cc1`?
**A.** ΔTm [8]: 3.4 °C; Kd [7]: 22.1 µM; Ratio [2]: 2.4

**Q.** For `CCN(CC)CCNC(=O)c1ccc(/C=C2\CCn3c2nc2cc(N4CCN(C)CC4)c(F)cc2c3=O)cc1`, which Ratio [2] is on record?
**A.** 2.7

**Q.** Which Activity [5] does the source give for `CN1CCN(c2cc3nc4n(c(=O)c3cc2F)CCC/C4=C\c2ccc(NC(=O)CN3CCN(CCO)CC3)cc2)CC1` here?
**A.** Active

**Q.** And the Ratio [2]?
**A.** < 1.4

**Q.** Which results are given for `O=C(CCN1CCCC1)Nc1ccc(/C=C2\CCn3c2nc2cc(N4CCCCC4)c(F)cc2c3=O)cc1`?
**A.** inhibition [9]: inactive; Ratio [2]: 1.4 to 4.3

**Q.** For `O=C(CCN1CCCCC1)Nc1ccc(/C=C2\CCn3c2nc2cc(N4CCCCC4)c(F)cc2c3=O)cc1`, which Ratio [2] is on record?
**A.** 1.4 to 4.3

**Q.** What does the source list for `O=C(CCN1CCCC1)Nc1ccc(/C=C2\CCn3c2nc2cc(NC(=O)CCN4CCCC4)ccc2c3=O)cc1`?
**A.** ΔTm [8]: 8.5 °C; Activity [5]: inactive; Ratio [2]: 2.5

**Q.** Which inhibition [3] does the source give for `CCN(CC)CCNC(=O)c1ccc(/C=C2\CCn3c2nc2cc(NCCN4CCCC4)c(F)cc2c3=O)cc1` here?
**A.** Active

**Q.** And the inhibition [1]?
**A.** Active

**Q.** And the inhibition [4]?
**A.** Active

**Q.** What does the source list for `O=C(NCCN1CCCC1)c1ccc(/C=C2\CCn3c2nc2cc(NCCCN4CCCC4)c(F)cc2c3=O)cc1`?
**A.** inhibition [3]: Active; inhibition [1]: Active; inhibition [4]: Active

**Q.** Which inhibition [1] does the source give for `CCN(CC)CCNC(=O)c1ccc(/C=C2\CCCn3c2nc2cc(N4CCN(C)CC4)c(F)cc2c3=O)cc1` here?
**A.** Active

**Q.** Which inhibition [3] does the source give for `O=C(NCCCN1CCCC1)c1ccc(/C=C2\CCn3c2nc2cc(NCCCN4CCCC4)c(F)cc2c3=O)cc1` here?
**A.** Active

**Q.** What about the inhibition [1] of the same compound?
**A.** Active

**Q.** And the inhibition [4]?
**A.** Active

**Q.** With `CN(C)CCCNC(=O)c1ccc(/C=C2\CCn3c2nc2cc(N4CCN(C)CC4)c(F)cc2c3=O)cc1` as the compound, how does the inhibition [1] read?
**A.** Active

**Q.** With `CN1CCN(c2cc3nc4n(c(=O)c3cc2F)CC/C4=C\c2ccc(NC(=O)CCN3CCCC3)cc2)CC1` as the compound, how does the inhibition [1] read?
**A.** Active

**Q.** And the Ratio [2]?
**A.** 1.6

**Q.** Which inhibition [1] does the source give for `CN1CCN(c2cc3nc4n(c(=O)c3cc2F)CCC/C4=C\c2ccc(C(=O)NCCN3CCCCC3)cc2)CC1` here?
**A.** Active

**Q.** What does the source list for `CN(C)CCNC(=O)c1ccc(/C=C2\CCn3c2nc2cc(N4CCN(C)CC4)c(F)cc2c3=O)cc1`?
**A.** Activity [5]: Active; inhibition [1]: Active

**Q.** For `CN1CCN(c2cc3nc4n(c(=O)c3cc2F)CCC/C4=C\c2ccc(NC(=O)CCN3CCCCC3)cc2)CC1`, which inhibition [1] is on record?
**A.** Active

**Q.** With `CN1CCN(c2cc3nc4n(c(=O)c3cc2F)CCC/C4=C\c2ccc(C(=O)NCCN3CCCC3)cc2)CC1` as the compound, how does the inhibition [1] read?
**A.** Active

**Q.** For `CCN(CC)CCC(=O)Nc1ccc(/C=C2\CCn3c2nc2cc(N4CCCCC4)c(F)cc2c3=O)cc1`, which Ratio [2] is on record?
**A.** 1.4 to 4.3

**Q.** For `CN1CCN(c2cc3nc4n(c(=O)c3cc2F)CCC/C4=C\c2ccc(NC(=O)CCN3CCCC3)cc2)CC1`, which Ratio [2] is on record?
**A.** 1.3

**Q.** What does the source list for `CN1CCN(c2cc3nc4n(c(=O)c3cc2F)CC/C4=C\c2ccc(NC(=O)CN3CCN(CCO)CC3)cc2)CC1`?
**A.** Activity [5]: Active; inhibition [1]: Active

**Q.** Which inhibition [1] does the source give for `CCN(CC)CCCNC(=O)c1ccc(/C=C2\CCn3c2nc2cc(N4CCN(C)CC4)c(F)cc2c3=O)cc1` here?
**A.** Active
